System: thromboxane B2 (TXB2) formation
Assay: Percent inhibition against thromboxane B2 (TXB2) formation in collagen-stimulated PRP from mice after oral administration (RIA)
Type: in vivo, ddY male mouse
Conditions: Mus musculus, blood collected 1 hour later, 12.5 μg/ml collagen, TXB2 5 minutes later; for inhibition at 30 mg/kg: 30 mg/kg oral; for inhibition at 100 mg/kg: 100 mg/kg oral
Description: Using a ddY male mouse having a body weight of 35-40 g, one of the representative compounds of this invention was administered orally. One hour later, citrated blood was collected. PRP (platelet-rich plasma) was separated. Aggregation of platelets by the addition of 12.5 μg/ml of collagen was observed by an aggregometer. The amount of thromboxane B2 (a stable metabolite of thromboxane A2) formed 5 minutes later in the liquid reaction mixture was measured by the RIA method. Results are shown in Table 1, in terms of percent inhibition against the formation of thromboxane B2 (TXB2).

SMILES | inhibition at 30 mg/kg [%] | inhibition at 100 mg/kg [%]
COC(=O)C1=C(C)NC(C)=C(C(=O)OCCOC(=O)C=Cc2ccc(Cn3ccnc3)cc2)C1c1cccc([N+](=O)[O-])c1 (stereo not shown) [Ex. 8, 3-Methyl 5-[2-[3-[4-(1-imidazolylmethyl)-phenyl]acryloyloxy]ethyl]2,6-dimethyl-4-(3-nitrophenyl)-1,4-dihydropyridine-3,5-dicarboxylate] | 60 | 72
COC(=O)C1=C(C)NC(C)=C(C(=O)OCCOC(=O)c2ccc(OCCn3ccnc3)cc2)C1c1cccc(Cl)c1Cl (stereo not shown) [Ex. 16, 3-Methyl 5-[2-[4-[2-(1-imidazolyl)ethoxy]-benzoyloxy]ethyl]2,6-dimethyl-4-(2,3-dichlorophenyl)-1,4-dihydropyridine-3,5-dicarboxylate] | 75 | 94
COC(=O)C1=C(C)NC(C)=C(C(=O)OCCOC(=O)C=Cc2ccc(Cn3ccnc3)cc2)C1c1ccccc1F (stereo not shown) [Ex. 14, 3-Methyl 5-[2-[3-[4-(1-imidazolylmethyl)phenyl]acryloyloxy]ethyl]2,6-dimethyl-4-(2-fluorophenyl)-1,4-dihydropyridine-3,5-dicarboxylate] | 52 | 83
CCOC(=O)C1=C(C)NC(C)=C(C(=O)OCCOC(=O)c2ccc(OCCn3ccnc3)cc2)C1c1cccc([N+](=O)[O-])c1 (stereo not shown) [Ex. 2, 3-Ethyl 5-[2-[4-[2-(1-imidazolyl)-ethoxy]-benzoyloxy]-ethyl]2,6-dimethyl-4-(3-nitrophenyl)-1,4-dihydropyridine-3,5-dicarboxylate] | 42 | 72
CCOC(=O)C1=C(C)NC(C)=C(C(=O)OCCCOC(=O)c2ccc(OCCn3ccnc3)cc2)C1c1cccc([N+](=O)[O-])c1 (stereo not shown) [Ex. 6, 3-Ethyl 5-[3-[4-[2-(1-imidazolyl)ethoxyl]benzoyloxy]propyl]2,6-dimethyl-4-(3-nitrophenyl)-1,4-dihydropyridine-3,5-dicarboxylate] | 74 | 95

Source: patent publication US4737506A, “Anti-arteriosclerotic pyridyl or imidazolyl derivatives of carbonyloxyalkyl hantzsch esters” (Kowa Co., Ltd., priority 1984, dated 1988)
